Key:
[1] = TK assay, oral mixture dosing: serum concentrations and noncompartmental analysis (sparse data)
Description: (§1) The experiment was carried out on thirty 10-wk old female New Zealand white rabbits (INRA 1777 line) weighing 2.37±0.14kg . […] Blood samples were taken at the designated time points post IV and oral administration: 15 min, 30 min, 1 h, 2 h, 4 h, 8 h, 12 h, 24 h, 3 d, 7 d, and 28 d from groups of 3 or 6 rabbits at each sampling time. Each rabbit was sampled 3 times and 3 rabbits were sampled at each sampling time, except at 30 min post administration, when 6 samples were collected to provide a sufficient blood volume for assaying the compounds. The doses and assay time points were selected to allow the calculation of TK parameters (Table 1) based on preliminary TK data. Residual concentrations of the compounds, and their possible evolution over time, were determined by sampling six entirely untreated rabbits during the TK study on the day of drug administrations, then 14 d and 28 d later.
(§2) The volume administered was adjusted to the animal’s body weight (BW) recorded the day before.
(§3) Intravenous administrations were performed via an indwelling catheter (22G Terumo, 0.9×25mm ) just after its insertion into an ear vein. […] For oral administrations, the mixture of all compounds ( 4mL/kg ) was deposited directly in the mouth of rabbits using a catheter (22G BD Insyte 22G, 0.9×25mm ). Prior to the study, the rabbits had been trained to gradually swallow water and then corn oil.
(§4) Blood samples were collected from the auricular artery using a 20 G needle ( 0.9×25mm ) and a dry tube. The first two blood samples were 8–10mL in volume, whereas a large volume (about 20mL ) was obtained antemortem immediately after electrical stunning (95LX rabbit stunner; Burdis), followed by exsanguination.
(§5) Serum concentration-time profiles of the different compounds were first analyzed using a noncompartmental approach (NCA) involving a sparse data option. Sparse data methodology consists of calculating TK parameters based on the mean profile of all the subjects in the dataset and is appropriate when a rich data series cannot be obtained, as in the present experiment ([FDA 1999]). The area under the concentration time curve ( AUC0−tlast ) and the area under the first moment curve ( AUMC0−tlast ) from dosing time ( t=0 ) to the time of the last measurable concentration were calculated using the linear trapezoidal rule after IV and oral dosing. The area under the serum concentration time curve from dosing time to infinity ( AUC0−inf ) was obtained by adding to AUC0−tlast the area extrapolated from the time of the last measurable concentration to infinity by dividing the last quantifiable serum concentration by the slope of the terminal phase ( λZ ), as estimated by linear regression using the best fit option of Phoenix®.
(§6) The clearance (CL) and apparent clearance (CL_F) were respectively estimated after IV and oral administrations by dividing the administered dose by the AUC0−inf calculated for each analyte.
(§7) The terminal half-life (HL) was estimated with Equation 1: (1) HL=0.69315/λZ where λz is the slope of the terminal phase.
The oral bioavailability (F) was estimated using Equation 2: (2) F=AUCvo0−tlast×Doseiv/AUCiv0−tlast×Dosevo, where AUCiv0−tlast and AUCvo0-tlast are the values of AUC0−tlast obtained after IV and oral dosing, respectively, and Doseiv and Dosevo are the IV and oral doses.

[2] = TK assay, intravenous mixture dosing: serum concentrations and noncompartmental analysis (sparse data)
Description: as §1, §2, §3, §4, §5, §6, §7
The mean residence time (MRT) was estimated using Equation 3: (3) MRT=AUMCiv0−tlast /AUCiv0−tlast , where AUCMiv0−tlast and AUCiv0−tlast are the values of AUMC0−tlast and AUC0−tlast obtained after IV dosing.
The steady-state volume of distribution ( VSS ) was estimated using Equation 4: (4) VSS=CL×MRT, with CL and MRT as defined above.

[3] = Chronic exposure: daily oral mixture for 17 wk, steady-state serum concentrations
Description: The objective of this preliminary experiment was to check the ability of our approach to determine the loading and maintenance doses of the eight compounds to be administered simultaneously by oral route to reproduce in female rabbits targeted serum concentrations. The experiment was carried out on thirty-two 2-wk old female New Zealand white rabbits (INRA 1777 line) randomly allocated to a treatment and control groups of 16 rabbits weighing 309±45g and 298±62g , respectively. The treated rabbits were orally administrated a mixture of the eight compounds at a dosage corresponding to the sum of the loading and daily maintenance doses followed by daily administrations of the maintenance dose for 17 wk (see the “Estimation of the doses” section). The control group was orally administrated the vehicle for the same duration.
The volume of the maintenance dosing solution ( 1mL/kg ) was weekly adjusted to the mean BW estimated from the known pattern of growth of the INRA 1777 rabbit line. Oral dosing and antemortem blood sampling were performed as previously described.
Blood samples were left to clot for about 20–30 min at ambient temperature and centrifuged for 20 min at 3,000×g at 25°C. The separated serum was stored in glass tubes at −20°C until assayed.

[4] = oral mixture dosing, NCA, n=12, MEHP after oral DEHP
[5] = female, New Zealand white (INRA 1777 line), rabbit, in vivo, po
[6] = female, New Zealand white (INRA 1777 line), rabbit, in vivo, po, Serum concentration
[7] = female, New Zealand white, rabbit, in vivo, po, Serum concentration
[8] = female, New Zealand white (INRA 1777 line), rabbit, in vivo, iv
[9] = female, New Zealand white, rabbit, in vivo, iv, Serum concentration

CCCCC(CC)COC(=O)c1ccccc1C(=O)O (stereo not drawn) [MEHP, mono(2-ethylhexyl)phthalate]
F (fraction of the dose of DEHP that has been metabolized into MEHP) ([1]; NCA, MEHP after oral DEHP vs IV MEHP, as fraction): 0.99 | MRT [1, 4]: 12.0 h | Tmax [1, 4]: 4.05 h | Serum concentration ([1]; oral, rabbit 13, 4.30 h, MEHP after oral DEHP): 5150 nM | Serum concentration ([1]; oral, rabbit 14, 0.37 h, MEHP after oral DEHP): 1090 nM | Serum concentration ([1]; oral, rabbit 14, 4.17 h, MEHP after oral DEHP): 5840 nM | Serum concentration ([1]; oral, rabbit 15, 4.05 h, MEHP after oral DEHP): 6870 nM | Serum concentration ([1]; oral, rabbit 15, 23.98 h, MEHP after oral DEHP): 270 nM | Serum concentration ([1]; oral, rabbit 16, 0.55 h, MEHP after oral DEHP): 1490 nM | Serum concentration ([1]; oral, rabbit 16, 8.22 h, MEHP after oral DEHP): 2380 nM | Serum concentration ([1]; oral, rabbit 16, 72.00 h, MEHP after oral DEHP): 33 nM | Serum concentration ([1]; oral, rabbit 17, 0.53 h, MEHP after oral DEHP): 2290 nM | Serum concentration ([1]; oral, rabbit 17, 8.48 h, MEHP after oral DEHP): 4200 nM | Serum concentration ([1]; oral, rabbit 17, 72.00 h, MEHP after oral DEHP): 25 nM | Serum concentration ([1]; oral, rabbit 18, 0.55 h, MEHP after oral DEHP): 2150 nM | Serum concentration ([1]; oral, rabbit 18, 8.00 h, MEHP after oral DEHP): 3830 nM | Serum concentration ([1]; oral, rabbit 18, 71.96 h, MEHP after oral DEHP): 91 nM | Serum concentration ([1]; oral, rabbit 19, 1.02 h, MEHP after oral DEHP): 4160 nM | Serum concentration ([1]; oral, rabbit 19, 12.00 h, MEHP after oral DEHP): 1610 nM | Serum concentration ([1]; oral, rabbit 20, 1.07 h, MEHP after oral DEHP): 3160 nM | Serum concentration ([1]; oral, rabbit 20, 12.00 h, MEHP after oral DEHP): 1930 nM | Serum concentration ([1]; oral, rabbit 21, 1.08 h, MEHP after oral DEHP): 2800 nM | Serum concentration ([1]; oral, rabbit 21, 12.00 h, MEHP after oral DEHP): 1910 nM | Serum concentration ([1]; oral, rabbit 22, 2.00 h, MEHP after oral DEHP): 3290 nM | Serum concentration ([1]; oral, rabbit 23, 2.00 h, MEHP after oral DEHP): 2930 nM | Serum concentration ([1]; oral, rabbit 24, 2.22 h, MEHP after oral DEHP): 1570 nM | AUC0−inf ([1]; serum, oral mixture dosing, NCA, n=12, MEHP after oral DEHP): 65.2 µM·h | Cmax ([1]; serum, oral mixture dosing, NCA, n=12, doses in Table 3 r3, MEHP measured after oral DEHP, BPSG after BPS): 6870 nM | half-life ([1]; terminal, oral mixture dosing, NCA, n=12, MEHP after oral DEHP): 10.4 h | CL ([2]; IV mixture dosing, NCA, n=12): 7.15 mL/min/kg | MRT ([2]; IV mixture dosing, NCA, n=12): 16.3 h | VSS ([2]; IV mixture dosing, NCA, n=12): 7.00 L/kg | VZ ([2]; IV mixture dosing, NCA, n=12): 7.85 L/kg | Serum concentration ([2]; IV, rabbit 1, 0.30 h): 11380 nM | Serum concentration ([2]; IV, rabbit 1, 4.38 h): 72 nM | Serum concentration ([2]; IV, rabbit 1, 24.03 h): < 18 nM | Serum concentration ([2]; IV, rabbit 2, 0.28 h): 14440 nM | Serum concentration ([2]; IV, rabbit 2, 4.05 h): 39 nM | Serum concentration ([2]; IV, rabbit 3, 0.35 h): 3040 nM | Serum concentration ([2]; IV, rabbit 3, 4.05 h): 59 nM | Serum concentration ([2]; IV, rabbit 4, 0.62 h): 4130 nM | Serum concentration ([2]; IV, rabbit 4, 8.33 h): 27.5 nM | Serum concentration ([2]; IV, rabbit 4, 72.00 h): < 18 nM | Serum concentration ([2]; IV, rabbit 5, 0.75 h): 3760 nM | Serum concentration ([2]; IV, rabbit 5, 8.62 h): 42 nM | Serum concentration ([2]; IV, rabbit 5, 72.03 h): < 18 nM | Serum concentration ([2]; IV, rabbit 6, 0.57 h): 7060 nM | Serum concentration ([2]; IV, rabbit 6, 7.98 h): 21 nM | Serum concentration ([2]; IV, rabbit 6, 71.97 h): 36 nM | Serum concentration ([2]; IV, rabbit 7, 1.13 h): 1210 nM | Serum concentration ([2]; IV, rabbit 7, 11.98 h): < 18 nM | Serum concentration ([2]; IV, rabbit 8, 1.12 h): 820 nM | Serum concentration ([2]; IV, rabbit 8, 12.02 h): < 18 nM | Serum concentration ([2]; IV, rabbit 9, 1.03 h): 720 nM | Serum concentration ([2]; IV, rabbit 9, 11.97 h): < 18 nM | Serum concentration ([2]; IV, rabbit 11, 2.08 h): 480 nM | Serum concentration ([2]; IV, rabbit 12, 2.08 h): 450 nM | AUC0−inf ([2]; serum, IV mixture dosing, NCA, n=12): 9.73 µM·h | Cmax ([2]; serum, IV mixture dosing, NCA, n=12, doses in Table 2 r3, BPSG after BPS dosing): 14400 nM | half-life ([2]; terminal, IV mixture dosing, NCA, n=12): 12.7 h | Observed CSS ([3]; serum, mean±SD, n=16, after 17 weeks of oral mixture, MEHP after DEHP dosing): 51±28 (MEHP) ng/mL

ClC(Cl)=C(c1ccc(Cl)cc1)c1ccc(Cl)cc1 [pp′DDE, 1,1-Dichloro-2,2-bis(p-chlorophenyl)ethylene]
AUC(0-inf) [1, 5]: 78.6 µM·h | CL/F [1, 5]: 3 mL/min/kg | Cmax [1, 5]: 580 nM | MRT [1, 5]: 307 h | Tmax [1, 5]: 24 h | Vd/F [1, 5]: 68.8 L/kg | bioavailability [1, 5]: 62% | half-life [1, 5]: 260 h | Serum concentration ([1]; female, New Zealand white (INRA 1777 line), rabbit, in vivo, po, 24 h): 430 nM | Serum concentration ([1]; female, New Zealand white (INRA 1777 line), rabbit, in vivo, po, 672.02 h): 40 nM | concentration at 0.57 h [1, 6]: 16 nM | concentration at 23.98 h [1, 6]: 250 nM | concentration at 24 h [1, 6]: 720 nM | concentration at 168 h [1, 6]: 110 nM | concentration at 671.96 h [1, 6]: 24 nM | concentration at 672.02 h [1, 6]: 31 nM | Serum concentration ([1]; female, New Zealand white, rabbit, in vivo, po, 72 h): 200 nM | concentration at 71.96 h [1, 7]: 250 nM | concentration at 72 h [1, 7]: 140 nM | concentration at 168 h [1, 7]: 110 nM | concentration at 168.02 h [1, 7]: 91 nM | AUC(0-inf) [2, 8]: 19.8 µM·h | Cmax [2, 8]: 900 nM | MRT [2, 8]: 203 h | clearance [2, 8]: 1.83 mL/min/kg | half-life [2, 8]: 238 h | Vd ([2]; female, New Zealand white (INRA 1777 line), rabbit, in vivo, iv, VSS): 23.2 L/kg | Vd ([2]; female, New Zealand white (INRA 1777 line), rabbit, in vivo, iv, VZ): 39.2 L/kg | Serum concentration ([2]; female, New Zealand white, rabbit, in vivo, iv, 24 h): 60 nM | Serum concentration ([2]; female, New Zealand white, rabbit, in vivo, iv, 168 h): 15 nM | concentration at 0.6 h [2, 9]: 600 nM | concentration at 0.67 h [2, 9]: 900 nM | concentration at 0.77 h [2, 9]: 640 nM | concentration at 24 h [2, 9]: 65 nM | concentration at 24.03 h [2, 9]: 47 nM | concentration at 71.97 h [2, 9]: 27 nM | concentration at 72 h [2, 9]: 26 nM | concentration at 72.03 h [2, 9]: 27 nM | concentration at 167.92 h [2, 9]: 11 nM | concentration at 168 h [2, 9]: 19 nM | concentration at 671.83 h [2, 9]: 3.7 nM | concentration at 671.96 h [2, 9]: 2.8 nM | concentration at 672 h [2, 9]: 6.8 nM | concentration at 17 wk [3, 5]: 25 ± 12 ng/mL

From paper PMC8597046, “Use of Mixture Dosing and Nonlinear Mixed Effect Modeling of Eight Environmental Contaminants in Rabbits to Improve Extrapolation Value of Toxicokinetic Data” (Environmental Health Perspectives, 2021)
